Data: ChEMBL document CHEMBL2203012, “Anti-infective and herbicidal activity of N-substituted 2-aminobenzothiazoles” (Bioorg Med Chem, 2012)

What was measured:
[1] = Octanol-water partition coefficient, log P of the compound; type: physicochemical
THP-1 = experiment: (§1) Cytotoxicity against human THP1 cells assessed as cell death after 24 hrs by LDH assay; type: cell-based; settings: thp-1, 24 h
[2] = test system: Staphylococcus epidermidis; experiment: Antibacterial activity against Staphylococcus epidermidis H 6996/08 assessed as growth inhibition after 48 hrs by broth microdilution test; type: functional; settings: H 6996/08, 48 h
Mycobacterium kansasii = experiment: Antimycobacterial activity against log-phase Mycobacterium kansasii CIT11/06 assessed as growth inhibition after 5 days by alamar blue assay; type: functional; settings: CIT11/06, 120 h
[3] = test system: Staphylococcus epidermidis; experiment: Antibacterial activity against Staphylococcus epidermidis H 6996/08 assessed as growth inhibition after 24 hrs by broth microdilution test; type: functional; settings: H 6996/08, 24 h
Staphylococcus aureus [4] = experiment: Antibacterial activity against methicillin-resistant Staphylococcus aureus H 5996/08 assessed as growth inhibition after 48 hrs by broth microdilution test; type: functional; settings: H 5996/08, 48 h
Staphylococcus aureus [5] = experiment: Antibacterial activity against methicillin-resistant Staphylococcus aureus H 5996/08 assessed as growth inhibition after 24 hrs by broth microdilution test; type: functional; settings: H 5996/08, 24 h
[6] = test system: Trichophyton mentagrophytes; experiment: Antifungal activity against Trichophyton mentagrophytes 445 assessed as growth inhibition after 120 hrs by CLSI M38-A broth microdilution method; type: functional, organism-based; settings: Trichophyton mentagrophytes, 445, 120 h
[7] = test system: Trichophyton mentagrophytes; experiment: Antifungal activity against Trichophyton mentagrophytes 445 assessed as growth inhibition after 72 hrs by CLSI M38-A broth microdilution method; type: functional, organism-based; settings: Trichophyton mentagrophytes, 445, 72 h
Trichosporon asahii [8] = experiment: Antifungal activity against Trichosporon asahii 1188 assessed as growth inhibition after 48 hrs by CLSI M27-A2 broth microdilution method; type: functional; settings: Trichosporon asahii, 1188, 48 h
Trichosporon asahii [9] = experiment: Antifungal activity against Trichosporon asahii 1188 assessed as growth inhibition after 24 hrs by CLSI M27-A2 broth microdilution method; type: functional; settings: Trichosporon asahii, 1188, 24 h
Pichia kudriavzevii [10] = experiment: Antifungal activity against Candida krusei E28 assessed as growth inhibition after 48 hrs by CLSI M27-A2 broth microdilution method; type: functional; settings: E28, 48 h
Pichia kudriavzevii [11] = experiment: Antifungal activity against Candida krusei E28 assessed as growth inhibition after 24 hrs by CLSI M27-A2 broth microdilution method; type: functional; settings: E28, 24 h
Candida albicans [12] = experiment: Antifungal activity against Candida albicans ATCC 44859 assessed as growth inhibition after 48 hrs by CLSI M27-A2 broth microdilution method; type: functional; settings: ATCC 44859, 48 h
Candida albicans [13] = experiment: Antifungal activity against Candida albicans ATCC 44859 assessed as growth inhibition after 24 hrs by CLSI M27-A2 broth microdilution method; type: functional; settings: ATCC 44859, 24 h
[14] = Lipophilicity, log K of the compound in methanol-water mixture by RP-HPLC; type: physicochemical
[15] = as §1; type: cell-based, THP-1; settings: THP-1 cells, read-out: LD50

SMILES | logP [1] | LD50 (THP-1) | IC80 [2] [µM] | IC90 (Mycobacterium kansasii) [µM] | IC80 [3] [µM] | IC90 (Staphylococcus aureus [4]) [µM] | IC80 (Staphylococcus aureus [5]) [µM] | IC50 [6] [µM] | IC50 [7] [µM] | IC80 (Trichosporon asahii [8]) [µM] | IC80 (Trichosporon asahii [9]) [µM] | IC80 (Pichia kudriavzevii [10]) [µM] | IC80 (Pichia kudriavzevii [11]) [µM] | IC80 (Candida albicans [12]) [µM] | IC80 (Candida albicans [13]) [µM] | log K [14] | CC50 at 24 h [15] [µM]
CC(C)(C)C(=O)Nc1nc2ccccc2s1 | 4.07 | ND(Insoluble) | 500 | 1040 | 125 | 500 | 250 | 250 | 62.5 | > 500 | > 500 | > 500 | 500 | 250 | 62.5 | 0.5891 | 
COC(=O)Nc1nc2ccccc2s1 | 2.72 |  | 500 | 533 | 125 | 250 | 250 | 125 | 125 | 500 | 250 | > 250 | > 250 | 250 | 125 | 0.4251 | 27.5
O=C(Cc1ccccc1)Nc1nc2ccccc2s1 | 3.98 |  | 500 | 256 | 125 | 62.2 | 31.2 | 125 | 15.6 | 62.2 | 31.2 | 125 | 62.5 | 7.81 | 3.9 | 0.5413 | > 30
O=C(Nc1nc2ccccc2s1)C1CCCCC1 | 4.11 |  | > 125 | 960 | > 125 | > 125 | > 125 | > 125 | > 125 | > 125 | 125 | > 125 | > 125 | > 125 | > 125 | 0.688 | > 30
CCCCC(=O)Nc1nc2ccccc2s1 | 3.63 |  | 62.5 | 1090 | 31.2 | 125 | 31.2 | 62.5 | 31.2 | > 125 | 62.5 | > 125 | 125 | 31.2 | 31.2 | 0.578 | > 30
O=C(Nc1nc2ccccc2s1)c1ccccc1 | 4.04 |  | > 500 | 533 | > 500 | 500 | 125 | 125 | 62.2 | > 500 | 250 | > 500 | 500 | 125 | 125 | 0.6643 | > 30
NC(=O)c1cnccn1 [PYRAZINAMIDE] |  |  |  | > 812 |  |  |  |  |  |  |  |  |  |  |  |  | 
CC(C)CC(=O)Nc1nc2ccccc2s1 | 3.54 |  | > 125 | 480 | > 125 | 125 | 125 | 62.5 | 62.5 | > 125 | 125 | > 125 | > 125 | 125 | 125 | 0.5598 | > 30
NNC(=O)c1ccncc1 [ISONIAZID] |  |  |  | < 729 |  |  |  |  |  |  |  |  |  |  |  |  | 
CC(=O)Nc1nc2ccccc2s1 | 2.14 |  | > 500 | 1300 | 250 | 500 | 250 | 250 | 250 | > 500 | 250 | > 500 | 250 | 125 | 62.5 | 0.3661 | > 30
c1ccc(CNc2nc3ccccc3s2)cc1 | 4.46 |  | > 125 |  | > 125 | > 125 | > 125 | > 125 | > 125 | > 125 | 125 | > 125 | > 125 | > 125 | > 125 | 0.6012 | 
CC1(C)S[C@@H]2[C@H](NC(=O)COc3ccccc3)C(=O)N2[C@H]1C(=O)O [PENICILLIN V] |  |  | 250 |  | 62.5 | 500 | 250 |  |  |  |  |  |  |  |  |  | 
CNc1nc2ccccc2s1 | 2.73 |  | 125 | > 1830 | 125 | 500 | 500 | 62.5 | 62.5 | > 500 | 125 | > 500 | 500 | 250 | 125 | 0.3819 | 
OC(Cn1cncn1)(Cn1cncn1)c1ccc(F)cc1F [FLUCONAZOLE] |  |  |  |  |  |  |  | 3.91 | 1.95 | 0.48 | 0.24 | 15.6 | 3.91 | 0.12 | 0.06 |  | 
